Results reported in patent publication US11420967B2 (priority 2018, dated 2022).
Like-named read-outs stand apart in the source and are kept apart here.

Experiments:
tubulin = molecular target: T1, tubulin (Sus scrofa, UniProt P02550+P02554); experiment: Tubulin polymerization with fluorescent tubulin (Cytoskeleton Inc.); type: biochemical; settings: fluorescent tubulin, 100 μl
T1 construct: purchased Cytoskeleton Inc
Protocol: Real-time tubulin polymerization was measured by quantifying increase in fluorescent tubulin assembly in microtubule (RFU) as a function of time (minutes).
Dose-response curves that generated results in Table 5. Tubulin assembly was measured using fluoresent-rescent tubulin in 100 μl according to manufacturer's protocol (Cytoskeleton Inc.).

T98G cells = experiment: Antitumor activity in T98G cells in culture (WST-1 cell viability); type: cell-based, human; settings: for EC50: WST-1, 72 hours after treatment, read-out: EC50; for Emax: read-out: maximal efficacy at killing T98G cells; for increase in EC50 value relative to compound 8: compared with 8 (87 nM)
Protocol: Unless otherwise noted, maximal efficacies were measured at 10 μM. Data are the mean of at least three independent experiments performed in triplicate.
Cell culture. Cells were cultured in DMEM supplemented with 10% FBS, 100 U/mL penicillin, and 100 μg/mL streptomycin at 37° C. in a 5% CO2 humidified atmosphere. T98G and HepG2 cells (ATCC, Manassas, Va.) were authenticated by ATCC when purchased using human short tandem repeat analysis and maintained in culture for less than 6 months. Tumors were obtained from surgeries performed at the Swedish Medical Center (Seattle, Wash.) according to Institutional Review Board guidelines. Patient samples used in this study were diagnosed as WHO grade IV glioblastoma multiforme. Patient-derived GBM cells were established from the freshly resected tumor tissues and maintained in NeuroCult® NSA medium (Stem Cell Technologies) with B-27 serum-free supplement, 20 ng/mL epidermal growth factor and 20 ng/mL fibroblast growth factor 2 as previously described.
Cell viability. […] Maximal % killing was calculated as the % reduction in cell viability measured at all drug concentration. EC50 values were calculated and reported only when a curve was reliably extrapolated by Prism software. The solvent for all modified carbazoles was DMSO (0.1% final).

[1] = tested on: NCI-60 cancer cell line panel; experiment: NCI-60 cancer cell line panel screen (percent growth inhibition); type: cell-based, human
Text: FIG. 4 illustrates analysis of cell-killing activity of select compounds of the disclosure in NCI-60 cancer cell line panel. 8, 20, 27 and 23 (left panel) and taxol, thalipcarpine, and maytansine activity (right panel) in the NCI-60 cell lines.
This screening platform measures the antitumor activities of compounds expressed as percent growth inhibition, which differentiates the compound's activity at inhibiting cell proliferation and reducing cell number (i.e. killing cells). […] Two GBM cells lines included in the NCI-60 panel, SF-295 and SF-539, were among the top ten cell lines that were the most sensitive to 8, 20 and 27 treatments (FIG. 6). Their respective EC50 values of the compounds measured in these cells mirrored their EC50 values measured in T98G cells. Additional cell lines among the top ten cell lines that were sensitive to these three compounds were three cell lines of colon cancer origin: Colo205, HT-29 and HCC-2998 (FIG. 5).

[2] = molecular target: T2, colchicine site of tubulin (purified tubulin) (Bos taurus, UniProt P81947+Q6B856); experiment: [3H]colchicine binding to purified tubulin; set-up: species or system bovine; settings: read-out: Colchicine Binding % inhibition (mean ± SD) at 5 μM
T2 construct: from tissue; host or cells: native tubulin
Protocol: (§1) Results are mean±SEM from n=4-5 independent experiments performed in triplicates. […] Results are from 3 independent experiments performed in duplicate.
First, it was determined whether compounds of the disclosure compete for [^3H]colchicine binding to native purified tubulin as previously described.
[^3H]Colchicine binding to purified tubulin and tubulin assembly. [^3H]Colchicine binding to purified tubulin and tubulin assembly (as assessed by turbidity development in purified bovine tubulin solutions) were both measured as previously described.

[3] = molecular target: T3, sheared MTs / bovine brain tubulin (Bos taurus, UniProt P81947+Q6B856); experiment: MT-tubulin partitioning (free tubulin pelleting assay, gel quantification); type: biochemical
T3 construct: Bovine brain tubulin was purified, polymerized into MTs and sheared; from tissue; host or cells: bovine brain
Protocol: as §1
Next tested was their ability to inhibit the assembly of purified tubulin using an in vitro turbidity assay as previously described. […] In this assay, compounds are incubated with sheared MTs at 37° C. and the resulting amounts of tubulin dimers (free tubulin) and polymer (MT) after 15 min is measured on polyacrylamide gels.
MT-tubulin partitioning. Bovine brain tubulin was purified, polymerized into MTs and sheared as previously described. Sheared MTs and drugs were incubated at 37° C. for 15 min and centrifuged for 10 min at 42,000 rpm at 37° C. prior to separation into supernatants containing free tubulin and pellets containing polymerized MTs as previously described. […] Peak intensities were quantified using ImageJ.

[4] = molecular target: T4, cannabinoid CB1 receptor (hCB1) (Homo sapiens, UniProt P21554); experiment: β-arrestin recruitment in hCB1-transfected HEK293 cells; type: cell-based; settings: β-arrestin recruitment
T4 construct: expressed in transfected cells; host or cells: HEK293

[5] = molecular target: T5, cannabinoid CB2 receptor (hCB2) (Homo sapiens, UniProt P34972); experiment: β-arrestin recruitment in hCB2-transfected HEK293 cells; type: cell-based
T5 construct: expressed in transfected cells; host or cells: HEK293

[6] = Homo sapiens, T98G cells, rounded values of the discussion
[7] = Homo sapiens, T98G, T98G cells, rounded values of the discussion

T4 sequence (P21554 whole entry): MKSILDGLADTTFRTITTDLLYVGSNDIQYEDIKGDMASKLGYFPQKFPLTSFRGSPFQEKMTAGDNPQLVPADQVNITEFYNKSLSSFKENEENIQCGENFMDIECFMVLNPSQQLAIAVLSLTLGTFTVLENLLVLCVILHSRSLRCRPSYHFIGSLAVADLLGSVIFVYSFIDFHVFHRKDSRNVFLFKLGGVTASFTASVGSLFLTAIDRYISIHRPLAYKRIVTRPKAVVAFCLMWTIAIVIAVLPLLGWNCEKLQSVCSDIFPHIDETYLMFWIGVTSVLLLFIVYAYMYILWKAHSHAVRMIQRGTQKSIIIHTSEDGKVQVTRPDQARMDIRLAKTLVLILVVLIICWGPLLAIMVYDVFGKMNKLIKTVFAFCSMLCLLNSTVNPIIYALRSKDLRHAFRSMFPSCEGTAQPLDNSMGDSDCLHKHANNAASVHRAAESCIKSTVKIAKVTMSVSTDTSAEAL
T5 sequence (P34972 whole entry): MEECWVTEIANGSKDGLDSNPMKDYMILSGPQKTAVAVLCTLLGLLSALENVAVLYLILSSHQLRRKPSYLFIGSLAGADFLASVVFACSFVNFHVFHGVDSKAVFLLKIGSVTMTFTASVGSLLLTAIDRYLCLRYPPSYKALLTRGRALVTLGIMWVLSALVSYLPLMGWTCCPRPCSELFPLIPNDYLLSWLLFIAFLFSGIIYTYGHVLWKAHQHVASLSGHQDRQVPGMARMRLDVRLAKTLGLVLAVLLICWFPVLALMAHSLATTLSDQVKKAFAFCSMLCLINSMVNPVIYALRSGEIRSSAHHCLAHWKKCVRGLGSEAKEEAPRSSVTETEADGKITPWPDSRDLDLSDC
T3 sequence (Q6B856 whole entry): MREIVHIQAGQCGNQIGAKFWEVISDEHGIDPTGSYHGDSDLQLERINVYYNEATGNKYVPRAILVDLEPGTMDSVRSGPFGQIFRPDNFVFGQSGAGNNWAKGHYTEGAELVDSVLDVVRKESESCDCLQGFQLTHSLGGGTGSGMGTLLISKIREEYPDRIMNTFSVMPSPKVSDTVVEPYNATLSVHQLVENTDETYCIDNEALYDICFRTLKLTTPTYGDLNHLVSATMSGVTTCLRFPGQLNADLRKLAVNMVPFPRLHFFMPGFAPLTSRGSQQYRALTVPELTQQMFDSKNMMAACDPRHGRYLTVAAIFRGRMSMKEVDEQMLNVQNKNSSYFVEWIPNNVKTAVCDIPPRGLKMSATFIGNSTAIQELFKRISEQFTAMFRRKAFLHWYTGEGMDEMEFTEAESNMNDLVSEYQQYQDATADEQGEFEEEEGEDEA
T3 sequence (P81947 whole entry): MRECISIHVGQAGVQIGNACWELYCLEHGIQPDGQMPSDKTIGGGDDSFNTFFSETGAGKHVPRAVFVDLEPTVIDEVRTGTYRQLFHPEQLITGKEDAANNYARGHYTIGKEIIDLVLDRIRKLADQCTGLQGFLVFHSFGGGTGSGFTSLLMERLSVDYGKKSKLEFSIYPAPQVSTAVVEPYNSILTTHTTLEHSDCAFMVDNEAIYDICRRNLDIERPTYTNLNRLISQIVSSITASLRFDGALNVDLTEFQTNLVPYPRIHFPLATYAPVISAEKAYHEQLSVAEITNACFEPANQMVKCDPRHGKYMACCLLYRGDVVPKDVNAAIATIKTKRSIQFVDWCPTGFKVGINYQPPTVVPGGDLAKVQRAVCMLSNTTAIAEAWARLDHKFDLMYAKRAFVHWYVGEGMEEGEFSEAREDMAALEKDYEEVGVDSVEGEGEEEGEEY
T1 sequence (P02554 whole entry): as the sequence (Q6B856 whole entry) above, with T55A, M170V, S296A, I316V, E440G, G441E counted along it
T1 sequence (P02550 whole entry): as the sequence (P81947 whole entry) above, with L136S, S232G, I265A, S340T, Q358E counted along it
T2 sequence (Q6B856 whole entry): as the sequence (Q6B856 whole entry) above
T2 sequence (P81947 whole entry): as the sequence (P81947 whole entry) above

Row | SMILES | EC50 (T98G cells; Homo sapiens, T98G cells) [µM] | antitumor activity in T98G cells (in words) (T98G cells; T98G cells) | effect on T98G cell viability (in words) (T98G cells; T98G cells) | maximal killing (% ± SEM) (T98G cells; T98G cells, at 10 μM, 72 hours) [%] | Emax (T98G cells; [6]) [%] | increase in EC50 value relative to compound 8 (T98G cells; T98G cells) | other results
1 | CCn1c2ccccc2c2cc(C(O)c3cccc4ncccc34)ccc21 (single isomer, unassigned; (+)) [(+)-19, (+)-(9-ethyl-9H-carbazol-3-yl)(quinolin-5-yl)methanol] |  |  |  |  |  |  | IC50 (tubulin): 0.64 µM
2 | CCn1c2ccccc2c2cc(C(=O)N3CCN(C)CC3)ccc21 [Compound 9, 9-ethyl-3-(4-methylpiperazine-1-carbonyl)-9H-carbazole] | > 10 | only active at concentrations above five micromolar | did not affect T98G cell viability significantly | 13.2 |  |  | 
3 | CCn1c2ccccc2c2cc(C(=O)c3ccc(Cl)cc3)ccc21 [Compound 10, 3-(4-chlorobenzoyl)-9-ethyl-9H-carbazole] | 1.5 |  |  | 71.1 | 61 |  | 
4 | CCn1c2ccccc2c2cc(C(=O)c3ccc(F)cc3)ccc21 [Compound 11, 9-ethyl-3-(4-fluorobenzoyl)-9H-carbazole] | 8 |  |  | 54.8 | 55 |  | 
5 | CCn1c2ccccc2c2cc(C(=O)c3ccc(C)cc3)ccc21 [Compound 12, 9-ethyl-3-(4-methylbenzoyl)-9H-carbazole] | 0.993 |  |  |  | 84 | 11 fold | maximal killing (% ± SEM) (T98G cells; T98G cells, at 3 μM, 72 hours): 83.6%
6 | CCn1c2ccccc2c2cc(C(=O)Cc3ccccc3)ccc21 [Compound 13, 1-(9-ethyl-9H-carbazol-3-yl)-2-phenylethan-1-one] | > 10 | only active at concentrations above five micromolar | did not affect T98G cell viability significantly |  |  | more than 115 fold | maximal killing (% ± SEM) (T98G cells; T98G cells, at 3 μM, 72 hours): 14.0%
7 | CCn1c2ccccc2c2cc(C(=O)c3cccc4ccccc34)ccc21 [Compound 14, 9-ethyl-3-(naphthalene-1-carbonyl)-9H-carbazole] | 1.7 |  |  | 72.0 |  | 20 fold | Emax (T98G cells; [7]): 72%
8 | CCCn1c2ccccc2c2cc(C(=O)c3ccc(C)c4ccccc34)ccc21 [Compound 16, 9-propyl-3-[(4-methylnaphthalen-1-yl)carbonyl]-9H-carbazole] | > 10 | only active at concentrations above five micromolar | did not affect T98G cell viability significantly | 16.3 |  | 115 fold | 
9 | Cc1ccc(C(=O)c2ccc3c(c2)c2ccccc2n3CC(F)(F)F)c2ccccc12 [Compound 18, 3-(4-methylnaphthalene-1-carbonyl)-9-(2,2,2-trifluoroethyl)-9H-carbazole] | 5.6 | only active at concentrations above five micromolar |  | 35.6 |  | 64 fold | Emax (T98G cells; [7]): 35 to 45%; maximal efficacy at killing T98G cells (T98G cells; T98G cells, rounded values of the discussion): 35%
10 | CCn1c2ccccc2c2cc(C(=O)c3cccc4cccnc34)ccc21 [Compound 22, 9-ethyl-3-(quinoline-8-carbonyl)-9H-carbazole] | 8.8 |  |  | 60.0 | 60 |  | reduction of maximal antitumor efficacy relative to compound 25 (T98G cells): 96%
11 | CCn1c2ccccc2c2cc(C(=O)c3cccc4c3CCCN4)ccc21 [Compound 23, (9-ethyl-9H-carbazol-3-yl)(1,2,3,4-tetrahydroquinolin-5-yl)methanone] | > 10 | only active at concentrations above five micromolar | did not affect T98G cell viability significantly |  |  |  | maximal killing (% ± SEM) (T98G cells; T98G cells, at 3 μM, 72 hours): −17.0%; viability at 10 µM ([1]; Homo sapiens, 48 h, read-out: growth inhibition: mean): 102%; effect on proliferation and viability of NCI-60 cell lines (in words) ([1]; NCI-60, 10 μM, 48 hours): did not significantly affect the proliferation and viability of any of the cell lines; inhibition at 5 µM [2]: 4 ± 1%; IC50 ([3]; MT-Tubulin Partitioning IC50 (μM) (mean), sheared MTs at 37° C., 15 min): > 20 µM; effect on MT assembly/disassembly, MT-free tubulin partitioning (in words) ([3]; free tubulin pelleting assay): does not affect MT assembly; Agonist efficacy (% activation) CB1 [4]: −2 % activation; Antagonist efficacy (% activation) CB1 [4]: 16 % activation; EC50 ([4]; antagonist mode, read-out: Antagonist CB1, value in parentheses (EC50)): 0.183 µM; EC50 [5]: 0.067 µM; Agonist efficacy (% activation) CB2 ([5]; β-arrestin recruitment): 2 % activation; Antagonist efficacy (% activation) CB2 ([5]; β-arrestin recruitment): 20 % activation
12 | CCn1c2ccccc2c2cc(C(=O)c3cccc4c3NCCC4)ccc21 [Compound 24, 9-ethyl-3-(1,2,3,4-tetrahydroquinoline-8-carbonyl)-9H-carbazole] | > 10 | only active at concentrations above five micromolar | did not affect T98G cell viability significantly |  |  |  | maximal killing (% ± SEM) (T98G cells; T98G cells, at 100 nM, 72 hours): −18.0%
13 | Cc1ccc(C(=O)n2c3ccccc3c3ccccc32)c2ccccc12 [Compound 28, 9-(4-methylnaphthalene-1-carbonyl)-9H-carbazole] | 0.957 |  |  | 89.1 | 89 |  | 
14 | COc1ccc(/C=C\c2cc(OC)c(OC)c(OC)c2)cc1O [combretastatin A-4, reference compound] |  |  |  |  |  |  | EC50 (T98G cells; T98G cells): 0.0006 µM; maximal killing (T98G cells; T98G cells, at 10 nM, 72 hours): 30.4%±2.1
15 | CCCCCCC(C)(C)c1ccc([C@@H]2C[C@H](O)CC[C@H]2CCCO)c(O)c1 [positive control, CP55940, reference compound] |  |  |  |  |  |  | Agonist efficacy (% activation) CB1 [4]: 1940 % activation; Antagonist efficacy (% activation) CB1 [4]: 97 % activation; Antagonist efficacy (% activation) CB2 ([5]; β-arrestin recruitment): 92 % activation
